target: T1, human RXFP1 (Homo sapiens, UniProt Q9HBX9); assay: RXFP1 cAMP assay (hRXFP1 HEK293 cAMP assay, HTRF); assay type: cell-based; details: HEK293 cells stably expressing human RXFP1, 30 min at room temperature, read-out: cAMP hRXFP1 HEK293 Assay EC50
T1 construct: expressed in transfected cells
T1 sequence (Q9HBX9 1-757): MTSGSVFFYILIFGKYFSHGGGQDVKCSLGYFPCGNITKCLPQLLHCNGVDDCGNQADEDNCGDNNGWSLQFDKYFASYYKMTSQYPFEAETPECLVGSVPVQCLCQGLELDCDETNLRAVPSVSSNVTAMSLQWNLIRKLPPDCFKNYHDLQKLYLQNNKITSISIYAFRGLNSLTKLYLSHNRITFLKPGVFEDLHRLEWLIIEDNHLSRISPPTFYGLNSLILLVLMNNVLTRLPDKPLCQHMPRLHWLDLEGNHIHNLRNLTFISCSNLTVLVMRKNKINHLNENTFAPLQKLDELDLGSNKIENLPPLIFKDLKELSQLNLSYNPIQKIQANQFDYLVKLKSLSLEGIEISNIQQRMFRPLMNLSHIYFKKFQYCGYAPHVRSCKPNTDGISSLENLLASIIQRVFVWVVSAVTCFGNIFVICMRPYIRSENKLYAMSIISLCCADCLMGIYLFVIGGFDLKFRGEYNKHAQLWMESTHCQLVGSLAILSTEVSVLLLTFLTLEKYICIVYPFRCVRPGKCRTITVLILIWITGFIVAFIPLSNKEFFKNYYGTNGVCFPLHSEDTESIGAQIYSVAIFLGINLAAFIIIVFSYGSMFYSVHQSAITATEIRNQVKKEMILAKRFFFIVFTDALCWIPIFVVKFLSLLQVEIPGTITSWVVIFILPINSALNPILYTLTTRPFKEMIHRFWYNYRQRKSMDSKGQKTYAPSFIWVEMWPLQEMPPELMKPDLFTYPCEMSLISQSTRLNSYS
In short: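 Potency and activity come from a four-parameter logistic fit of cAMP against compound concentration, tested from 0.010 nM up to 50 μM. The assay uses HEK293 cells stably expressing human RXFP1, incubated 30 min at ambient temperature with phosphodiesterase inhibitor IBMX present.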

| EC50 [µM] | Compound |
| --- | --- |
| 0.049 | COc1ccc(C2=NOC3CN(C(=O)OC(C)(C)C)CC23)cc1C(=O)N[C@@H]1C2CCC(/C2=C/C2CC2)[C@@H]1C(=O)Nc1ccc(F)c(C(F)(F)F)c1 (stereo partly shown) [compound 435] |
| 0.0224 | COc1ccc(C2=NOC(CC(C)(C)O)C2)cc1C(=O)N[C@H]1[C@@H](C(=O)Nc2ccc(F)c(C(F)(F)F)c2)[C@H]2CC[C@@H]1/C2=C\C1CC1 (single isomer, unassigned) [compound 528] |
| 0.0263 | COc1ccc(C2=NOC3COCC23)cc1C(=O)N[C@H]1[C@@H](C(=O)N[C@@H]2CCCc3ccccc32)[C@H]2CC[C@@H]1/C2=C\C1CC1 (stereo partly shown) [compound 538] |
| 0.005 | COC(=O)C(NC(C)=O)c1ccc(F)c(-c2ccc(OC)c(C(=O)N[C@@H]3C4CCC(/C4=C/C4CC4)[C@@H]3C(=O)Nc3ccc(F)c(C(F)(F)F)c3)c2)c1 (stereo partly shown) [Example 171] |
| 0.575 | COc1ccc(-c2cc(C(=O)O)ccc2F)cc1C(=O)N[C@@H]1C2CCC(/C2=C/C2CC2)[C@@H]1C(=O)NC(C)C (stereo partly shown) [compound 300] |
| 0.0041 | COc1ccc(C2=NOC3CC(CO)CC23)cc1C(=O)N[C@H]1[C@@H](C(=O)NC23CC(C)(C2)C3)[C@H]2CC[C@@H]1/C2=C\C1CC1 (stereo partly shown) [compound 774] |
| 0.005 | COc1ccc(C2=NOC3CS(=O)(=O)CC23)cc1C(=O)N[C@@H]1C2CCC(/C2=C/C2CC2)[C@@H]1C(=O)Nc1ccc(F)c(C(F)(F)F)c1 (single isomer, unassigned) [compound 443] |
| 0.0627 | COc1ccc(C2=NOC3COCC23)cc1C(=O)N[C@H]1[C@@H](C(=O)NCc2c(Cl)cccc2Cl)[C@H]2CC[C@@H]1/C2=C\C1CC1 (stereo partly shown) [compound 570] |
| 0.91 | COc1ccc(C2=CCNCC2)cc1C(=O)N[C@@H]1C2CCC(C2=C(C)C)[C@@H]1C(=O)Nc1ccc(F)c(C(F)(F)F)c1 (stereo partly shown) [compound 148] |
| 0.025 | COc1ccc(C2=NOC3CCCC23)cc1C(=O)N[C@@H]1C2CCC(/C2=C/C2CC2)[C@@H]1C(=O)Nc1ccc(F)c(C(F)(F)F)c1 (stereo partly shown) [compound 440] |
| 0.003 | COc1ccc(C2=NO[C@H]3C[C@H](CO)C[C@@H]23)cc1C(=O)N[C@H]1[C@@H](C(=O)Nc2ccc(F)c(C(F)(F)F)c2)[C@H]2CC[C@@H]1/C2=C\CC(O)C(F)(F)F (stereo partly shown) [compound 826] |
| 0.33 | COc1ccc(Br)cc1C(=O)N[C@@H]1C2CCC(/C2=C/c2ccccc2)[C@@H]1C(=O)Nc1ccc(F)c(C(F)(F)F)c1 (stereo partly shown) [Example 77] |
| 0.25 | COc1ccc(C2=NOC3COCC23)cc1C(=O)N[C@H]1[C@@H](C(=O)NC2CCC(C(F)(F)F)C2)[C@H]2CC[C@@H]1/C2=C\C1CC1 (stereo partly shown) [compound 649] |
| 0.002 | COc1ccc(C2=NOC3COCC23)cc1C(=O)N[C@H]1[C@@H](C(=O)Nc2cc(OC(F)(F)F)ccc2F)[C@H]2CC[C@@H]1/C2=C\C1CC1 (stereo partly shown) [compound 762] |
| 0.07 | CCOC(=O)c1c(-c2ccc(F)cc2)[nH]c2ccc(-c3ccc(OC)c(C(=O)N[C@@H]4C5CCC(/C5=C/C(F)(F)F)[C@@H]4C(=O)Nc4ccc(F)c(C(F)(F)F)c4)c3)cc12 (stereo partly shown) [compound 298] |
| 0.0027 | COc1ccc(-c2cc(C(C)CC(=O)O)ccc2F)cc1C(=O)N[C@H]1[C@@H](C(=O)Nc2ccc(F)c(C(F)(F)F)c2)[C@H]2CC[C@@H]1/C2=C\C1CC1 (stereo partly shown) [compound 888] |
| 0.58 | COc1ccc(-c2cccc(C(=O)O)c2OC)cc1C(=O)N[C@H]1[C@@H](C(=O)Nc2ccc(F)c(C(F)(F)F)c2)[C@H]2CC[C@@H]1C2=C(C)C [compound 101] |
| 0.0004 | COc1c(F)cc(C2=NOC3CC(CO)CC23)cc1C(=O)N[C@H]1[C@@H](C(=O)N[C@H](C)C2(C)CC2(F)F)[C@H]2CC[C@@H]1/C2=C\C1CC1 (stereo partly shown) [compound 756] |
| 0.0047 | COc1ccc(C2=NOC3CC(CO)CC23)cc1C(=O)N[C@H]1[C@@H](C(=O)N[C@H](C)C2(C)CC2)[C@H]2CC[C@@H]1/C2=C\c1csc(C)n1 (stereo partly shown) [compound 742] |
| 0.01 | COc1ccc(-c2cc(CC(=O)O)ccc2F)cc1C(=O)N[C@@H]1C2CCC(/C2=C/C2CC2)[C@@H]1C(=O)Nc1ccc(F)c(C(F)(F)F)c1 (stereo partly shown) [compound 189] |
| 0.0119 | CCC(C)(C)NC(=O)[C@@H]1[C@H](NC(=O)c2cc(C3=NOC4COCC34)ccc2OC)[C@@H]2CC[C@H]1/C2=C/C1CC1 (stereo partly shown) [compound 502] |

| EC50 [µM] | Compound |
| --- | --- |
| 0.0749 | COc1ccc(C2=NO[C@@H]3[C@H](O)CC[C@H]23)cc1C(=O)N[C@H]1[C@@H](C(=O)Nc2ccc(F)c(C(F)(F)F)c2)[C@H]2CC[C@@H]1/C2=C\C1CC1 (single isomer, unassigned) [compound 583] |
| 0.004 | COc1ccc(-c2cc(C(C)O)ccc2F)cc1C(=O)N[C@@H]1C2CCC(/C2=C/C2CC2)[C@@H]1C(=O)Nc1ccc(F)c(C(F)(F)F)c1 (stereo partly shown) [compound 248] |
| 0.003 | COc1ccc(-c2cc(C(NC(=O)CC3CCOCC3)C(=O)O)ccc2F)cc1C(=O)N[C@@H]1C2CCC(/C2=C/C(F)(F)F)[C@@H]1C(=O)Nc1ccc(F)c(C(F)(F)F)c1 (stereo partly shown) [compound 242] |
| 0.0871 | COc1ccc(C2=NOC3COCC23)cc1C(=O)N[C@H]1[C@@H](C(=O)NCC2CCCC2)[C@H]2CC[C@@H]1/C2=C\C1CC1 (stereo partly shown) [compound 592] |
| 0.0049 | CC(F)(F)COc1ccc(C2=NOC3COCC23)cc1C(=O)N[C@@H]1C2CCC(/C2=C/C2CC2)[C@@H]1C(=O)Nc1ccc(F)c(C(F)(F)F)c1 (stereo partly shown) [compound 790] |
| 4.6 | COc1cc(F)c(F)cc1C(=O)N[C@@H]1C2CCC(/C2=C/C(=O)Nc2ccccc2)[C@@H]1C(=O)Nc1ccc(F)c(C(F)(F)F)c1 (stereo partly shown) [Example 34] |
| 0.0773 | COc1ccc(C2=NOC3COCC23)cc1C(=O)N[C@H]1[C@@H](C(=O)NC2(C(C)C)CC2)[C@H]2CC[C@@H]1/C2=C\C1CC1 (stereo partly shown) [compound 584] |
| 0.27 | CCOC(=O)/C=C1\C2CCC1[C@H](C(=O)Nc1ccc(F)c(C(F)(F)F)c1)[C@@H]2NC(=O)c1cc(F)c(F)cc1OC (stereo partly shown) [compound 7] |
| 0.0038 | COc1c(F)cc(C2=NOC3CC(CO)CC23)cc1C(=O)N[C@@H]1C2CCC(/C2=C/C2CC2)[C@@H]1C(=O)NC12CC(C#N)(C1)C2 (stereo partly shown) [compound 772] |
| 0.001 | COc1ccc(-c2cc(C(OC(=O)NC3CCC3)C(F)(F)F)ccc2F)cc1C(=O)N[C@@H]1C2CCC(/C2=C/C2CC2)[C@@H]1C(=O)Nc1ccc(F)c(C(F)(F)F)c1 (stereo partly shown) [compound 211] |
| 0.023 | COc1ccc(C2=NOC(CO)C2)cc1C(=O)N[C@@H]1C2CCC(/C2=C/C2CC2)[C@@H]1C(=O)Nc1ccc(F)c(C(F)(F)F)c1 (stereo partly shown) [compound 380] |
| 0.012 | COc1ccc(-c2ccc(N3CCOCC3)nc2)cc1C(=O)N[C@@H]1C2CCC(/C2=C/C2CC2)[C@@H]1C(=O)Nc1ccc(F)c(C(F)(F)F)c1 (stereo partly shown) [compound 250] |
| 0.009 | COc1ccc(-c2cc(C3=NOC(C(=O)O)C3)ccc2F)cc1C(=O)N[C@H]1[C@@H](C(=O)Nc2ccc(F)c(C(F)(F)F)c2)[C@H]2CC[C@@H]1/C2=C\C1CCCC1 (stereo partly shown) [compound 913] |
| 0.0013 | COc1c(F)cc(C2=NOC3CC(O)(C(F)(F)F)CC23)cc1C(=O)N[C@H]1[C@@H](C(=O)N[C@H](C)C2(C)CC2)[C@H]2CC[C@@H]1/C2=C\c1cnc(C(F)(F)F)s1 (stereo partly shown) [compound 917] |
| 0.606 | COc1ccccc1CNC(=O)[C@@H]1[C@H](NC(=O)c2cc(C3=NOC4COCC34)ccc2OC)[C@@H]2CC[C@H]1/C2=C/C1CC1 (stereo partly shown) [compound 681] |
| 0.004 | CCCCC1[C@H]2CC[C@@H]1[C@H](C(=O)Nc1ccc(F)c(C(F)(F)F)c1)[C@@H]2NC(=O)c1cc(C2=NOC3CC(CO)CC23)ccc1OC (stereo partly shown) [Example 467] |
| 0.005 | COc1ccc(-c2cc(C(CO)NC(C)=O)ccc2F)cc1C(=O)N[C@@H]1C2CCC(/C2=C/C2CC2)[C@@H]1C(=O)Nc1ccc(F)c(C(F)(F)F)c1 (stereo partly shown) [Example 172] |
| 0.002 | COc1c(F)cc(-c2cc([C@H](OC(=O)NC3CCC3)C(F)(F)F)ccc2F)cc1C(=O)N[C@H]1[C@@H](C(=O)N[C@H](C)C2(C)CC2)[C@H]2CC[C@@H]1/C2=C\C1CC(F)(F)C1 [compound 970] |
| 0.001 | COc1c(F)cc(C2=NOC3CC(CO)CC23)cc1C(=O)N[C@H]1[C@@H](C(=O)N[C@H](C)C2(C)CC2)[C@H]2CC[C@@H]1/C2=C\C1CC(F)(F)C1 (stereo partly shown) [compound 813] |
| 0.0082 | COc1ccc(C2=NOC(C3(O)CCCC3)C2)cc1C(=O)N[C@H]1[C@@H](C(=O)Nc2ccc(F)c(C(F)(F)F)c2)[C@H]2CC[C@@H]1/C2=C\C1CC1 (single isomer, unassigned) [compound 488] |
| 0.0367 | COc1ccc(C2=NOC3COCC23)cc1C(=O)N[C@H]1[C@@H](C(=O)NC2CCCCC2)[C@H]2CC[C@@H]1/C2=C\C1CC1 (stereo partly shown) [compound 552] |

same assay, conditions: cAMP hRXFP1 HEK293 Assay EC50, HEK293 cells stably expressing human RXFP1, 30 min at room temperature

| Compound | EC50 [µM] |
| --- | --- |
| COc1ccc(-c2cc(C(=O)O)ccc2F)cc1C(=O)N[C@@H]1C2CCC(/C2=C/C2CC2)[C@@H]1C(=O)Nc1ccc(C#N)c(C(F)(F)F)c1 (stereo partly shown) [compound 270] | 0.025 |
